Reference: patent US10202373B2, “Heteroaryls and uses thereof” (MILLENNIUM PHARMACEUTICALS, INC., priority 2014, dated 2019)

Target: human VPS34 (Homo sapiens (Human), UniProt Q8NEB9)
Assay: Human VPS34 enzyme assay (Adapta TR-FRET)
Type: biochemical
Conditions: for inhibition at 1.11 µM: 1 h, inhibition of VPS34 at a 1.11 μM concentration, read-out: Percent Inhibition; for IC50: human VPS34 enzyme assay, IC50 ranges
Experimental: VPS34 (accession number GB:BC033004) was cloned into pDEST20-Thombin as N-terminal GST tagged fusion proteins using the Gateway system (Invitrogen, catalog#11804-013). The sequences were verified before recombinant protein expression using the Baculovirus Expression System with Gateway® Technology. For expression VPS34 was infected at 1 MOI in SF9 cells and harvested 72 hours post infection. For purification, VPS34 is purified by Glutathione Sepharose 4 Fast Flow (GE Healthcare #17-5132-03) followed by HiTrap Q (GE Healthcare #17-1153-01). Human VPS34 Enzyme Assay Method 100 nL compounds in DMSO are added to wells of a 384 well microtitre plate (Greiner 780076). At room temperature: 5 ul VPS34 reaction buffer (Invitrogen Assay Buffer Q (diluted 1 in 5 with nanopure water) plus 2 mM DTT and 2 mM MnCl2) containing ATP (20 uM, Promega) and 200 uM PI-PS substrate (Invitrogen PV5122) is added followed immediately by 5 ul VPS34 reaction buffer (as above) containing VPS34 (5 nM, Millennium Protein Sciences Group) and the mixture is incubated with shaking at room temperature for 1 hour. Then 5 ul […]-detect mix (as per Invitrogen Adapta Assay kit (PV5009) instructions (contains kinase quench buffer, TR-FRET buffer, Adapta Eu anti-ADP antibody and Alexa Fluor 647 ADP tracer)) is added to quench the reaction. The plates are then incubated for 30 minutes at room temperature with shaking and then read on a BMG PheraStar Plus reader. For the assay methods described above, test compound percent inhibition, at various concentrations, is calculated relative to control (DMSO and EDTA) treated samples. Compound concentration versus percent inhibition curves are fitted to generate IC50 values. One skilled in the art will appreciate that the values generated either as percentage inhibition at a single concentration or IC50 values are subject to experimental variation. […] Additionally, compounds of the invention that inhibit VPS34 are described with the following IC50 ranges: […]

Chain of human VPS34 (Q8NEB9 whole entry): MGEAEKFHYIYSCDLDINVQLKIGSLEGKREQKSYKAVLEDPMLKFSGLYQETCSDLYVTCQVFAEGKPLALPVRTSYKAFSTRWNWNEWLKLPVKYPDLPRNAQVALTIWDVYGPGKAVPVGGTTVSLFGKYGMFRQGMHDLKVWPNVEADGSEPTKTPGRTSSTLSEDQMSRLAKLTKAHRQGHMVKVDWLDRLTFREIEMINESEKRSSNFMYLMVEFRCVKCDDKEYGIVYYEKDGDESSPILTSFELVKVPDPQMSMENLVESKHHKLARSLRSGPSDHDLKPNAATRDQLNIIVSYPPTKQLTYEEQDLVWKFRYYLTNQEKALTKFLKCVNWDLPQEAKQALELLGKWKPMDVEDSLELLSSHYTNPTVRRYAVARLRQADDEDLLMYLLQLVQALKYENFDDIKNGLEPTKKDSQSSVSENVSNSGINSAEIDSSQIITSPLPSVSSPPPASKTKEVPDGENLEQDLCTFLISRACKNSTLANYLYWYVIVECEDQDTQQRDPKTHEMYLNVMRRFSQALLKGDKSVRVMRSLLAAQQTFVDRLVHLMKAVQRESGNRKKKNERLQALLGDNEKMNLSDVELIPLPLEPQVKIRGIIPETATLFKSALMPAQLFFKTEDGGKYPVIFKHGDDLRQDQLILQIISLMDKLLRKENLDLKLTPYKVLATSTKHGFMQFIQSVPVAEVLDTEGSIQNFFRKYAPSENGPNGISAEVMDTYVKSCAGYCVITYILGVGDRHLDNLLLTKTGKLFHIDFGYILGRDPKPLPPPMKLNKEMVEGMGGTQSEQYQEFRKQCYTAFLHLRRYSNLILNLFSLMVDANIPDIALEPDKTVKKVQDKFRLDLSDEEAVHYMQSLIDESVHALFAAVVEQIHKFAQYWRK

SMILES | inhibition at 1.11 µM [%] | IC50 [nM]
CCS(=O)(=O)n1ccc2c(-c3ccnc(NC(C)=O)c3)cnc(C)c21 [Compound I-16, N-{4-[1-(ethylsulfonyl)-7-methyl-1H-pyrrolo[2,3-c]pyridin-4-yl]pyridin-2-yl}acetamide] | > 99 | < 10
COC(=O)Nc1cc(-c2cnc(OC)c3c2ccn3S(C)(=O)=O)ccn1 [Compound I-1, methyl {4-[7-methoxy-1-(methylsulfonyl)-1H-pyrrolo[2,3-c]pyridin-4-yl]pyridin-2-yl}carbamate] | > 99 | < 10
CC(=O)Nc1cc(-c2cnc(C)c3c2c(F)cn3S(C)(=O)=O)ccn1 [Compound I-46, N-{4-[3-fluoro-7-methyl-1-(methylsulfonyl)-1H-pyrrolo[2,3-c]pyridin-4-yl]pyridin-2-yl}acetamide] | > 99 | 10 to 50
CCOC(=O)Nc1cc(-c2cnc(C)c3c2ccn3S(=O)(=O)C2CC2)ccn1 [Compound I-42, ethyl {4-[1-(cyclopropylsulfonyl)-7-methyl-1H-pyrrolo[2,3-c]pyridin-4-yl]pyridin-2-yl}carbamate] | > 99 | < 10
O=S(=O)(C1CC1)n1ccc2c(-c3ccnc(Nc4ccncn4)c3)cncc21 [Compound I-49, N-{4-[1-(cyclopropylsulfonyl)-1H-pyrrolo[2,3-c]pyridin-4-yl]pyridin-2-yl}pyrimidin-4-amine] | 88 | 10 to 50
COC(=O)Nc1cc(-c2cnc(C)c3c2ccn3S(=O)(=O)c2ccccc2)ccn1 [Compound I-2, methyl {4-[7-methyl-1-(phenylsulfonyl)-1H-pyrrolo[2,3-c]pyridin-4-yl]pyridin-2-yl}carbamate] | > 99 | < 10
COC(=O)Nc1cc(-c2cnc(C)c3c2ccn3S(=O)(=O)N(C)C)ccn1 [Compound I-6, methyl {4-[1-(dimethylsulfamoyl)-7-methyl-1H-pyrrolo[2,3-c]pyridin-4-yl]pyridin-2-yl}carbamate] | > 99 | 10 to 50
CCc1cc2c(-c3ccnc(NC(C)=O)c3)cncc2n1S(=O)(=O)c1ccccc1 [Compound I-24, N-{4-[2-ethyl-1-(phenylsulfonyl)-1H-pyrrolo[2,3-c]pyridin-4-yl]pyridin-2-yl}acetamide] | > 99 | 10 to 50
COC(=O)Nc1cc(-c2cnc(C)c3c2ccn3S(=O)(=O)CC(C)C)ccn1 [Compound I-15, methyl {4-[1-(isobutylsulfonyl)-7-methyl-1H-pyrrolo[2,3-c]pyridin-4-yl]pyridin-2-yl}carbamate] | > 99 | < 10
COC(=O)Nc1cc(-c2cncc3c2ccn3S(=O)(=O)N(C)C)ccn1 [Compound I-17, methyl {4-[1-(dimethylsulfamoyl)-1H-pyrrolo[2,3-c]pyridin-4-yl]pyridin-2-yl}carbamate] | > 99 | < 10
CC(=O)Nc1cc(-c2cnc(C)c3c2c(F)cn3S(=O)(=O)C2CC2)ccn1 [Compound I-14, N-{4-[1-(cyclopropylsulfonyl)-3-fluoro-7-methyl-1H-pyrrolo[2,3-c]pyridin-4-yl]pyridin-2-yl}acetamide] | > 99 | 10 to 50
CC(=O)Nc1cc(-c2cncc3c2ccn3S(C)(=O)=O)ccn1 [Compound I-21, N-{4-[1-(methylsulfonyl)-1H-pyrrolo[2,3-]pyridin-4-yl]pyridin-2-yl}acetamide] | > 99 | 10 to 50
CC(=O)Nc1cc(-c2cnc(C)c3c2ccn3S(=O)(=O)c2ccccc2C)ccn1 [Compound I-34, N-(4-{7-methyl-1-[(2-methylphenyl)sulfonyl]-1H-pyrrolo[2,3-c]pyridin-4-yl}pyridin-2-yl)acetamide] | > 99 | 10 to 50
CC(=O)Nc1cc(-c2cnc(CN)c3c2ccn3S(=O)(=O)C2CC2)ccn1 [Compound I-41, N-{4-[7-(aminomethyl)-1-(cyclopropylsulfonyl)-1H-pyrrolo[2,3-c]pyridin-4-yl]pyridin-2-yl}acetamide] | > 99 | 10 to 50
COC(=O)Nc1cc(-c2cncc3c2ccn3S(=O)(=O)c2ccccc2)ccn1 [Compound I-28, methyl {4-[1-(phenylsulfonyl)-1H-pyrrolo[2,3-c]pyridin-4-yl]pyridin-2-yl}carbamate] | > 99 | 10 to 50
CC(=O)Nc1cc(-c2cnc(C)c3c2ccn3S(=O)(=O)C2CC2)ccn1 [Compound I-44, N-{4-[1-(cyclopropylsulfonyl)-7-methyl-1H-pyrrolo[2,3-c]pyridin-4-yl]pyridin-2-yl}acetamide] | > 99 | 10 to 50
Cc1ncc(-c2ccnc(NC(=O)C3CC3(F)F)c2)c2ccn(S(C)(=O)=O)c12 (racemic) [Compound I-35, (rac)-2,2-difluoro-N-{4-[7-methyl-1-(methylsulfonyl)-1H-pyrrolo[2,3-c]pyridin-4-yl]pyridin-2-yl}cyclopropanecarboxamide] | > 99 | < 10
CCOC(=O)Nc1cc(-c2cnc(C)c3c2ccn3S(=O)(=O)c2ccccc2)ccn1 [Compound I-47, ethyl {4-[7-methyl-1-(phenylsulfonyl)-1H-pyrrolo[2,3-c]pyridin-4-yl]pyridin-2-yl}carbamate] | > 99 | 10 to 50
CS(=O)(=O)n1ccc2c(-c3ccnc(Nc4ncco4)c3)cncc21 [Compound I-9, 4-[1-(methylsulfonyl)-1H-pyrrolo[2,3-c]pyridin-4-yl]-N-(1,3-oxazol-2-yl)pyridin-2-amine] | > 99 | 10 to 50
CC(=O)Nc1cc(-c2cncc3c2ccn3S(=O)(=O)N(C)C)ccn1 [Compound I-33, N-{4-[1-(dimethylsulfamoyl)-1H-pyrrolo[2,3-c]pyridin-4-yl]pyridin-2-yl}acetamide] | > 99 | < 10
CC(=O)Nc1cc(-c2cncc3[nH]ccc23)ccn1 [Compound I-20, N-[4-(1H-pyrrolo[2,3-c]pyridin-4-yl)pyridin-2-yl]acetamide] | > 99 | 50 to 100
O=C(Cc1nnn[nH]1)Nc1cc(-c2cncc3c2ccn3S(=O)(=O)C2CC2)ccn1 [Compound I-27, N-{4-[1-(cyclopropylsulfonyl)-1H-pyrrolo[2,3-c]pyridin-4-yl]pyridin-2-yl}-2-(1H-tetrazol-5-yl)acetamide] | > 99 | 10 to 50
CCc1ncc(-c2ccnc(NC(C)=O)c2)c2ccn(S(C)(=O)=O)c12 [Compound I-3, N-{4-[7-ethyl-1-(methylsulfonyl)-1H-pyrrolo[2,3-c]pyridin-4-yl]pyridin-2-yl}acetamide] | > 99 | < 10
COC(=O)Nc1cc(-c2cncc3c2ccn3S(C)(=O)=O)ccn1 [Compound I-29, methyl {4-[1-(methylsulfonyl)-1H-pyrrolo[2,3-c]pyridin-4-yl]pyridin-2-yl}carbamate] | > 99 | 10 to 50
CS(=O)(=O)n1ccc2c(-c3ccnc(N)c3)cncc21 [Compound I-32, 4-[1-(methylsulfonyl)-1H-pyrrolo[2,3-c]pyridin-4-yl]pyridin-2-amine] | 30 | > 100
O=S(=O)(c1ccccc1)n1ccc2c(-c3ccnc(Nc4ncco4)c3)cncc21 [Compound I-13, N-(1,3-oxazol-2-yl)-4-[1-(phenylsulfonyl)-1H-pyrrolo[2,3-c]pyridin-4-yl]pyridin-2-amine] | > 99 | 10 to 50
COC(=O)Nc1cc(-c2cnc(C)c3c2ccn3S(C)(=O)=O)ccn1 [Compound I-38, methyl {4-[7-methyl-1-(methylsulfonyl)-1H-pyrrolo[2,3-c]pyridin-4-yl]pyridin-2-yl}carbamate] | 99 | 10 to 50
CC(=O)Nc1cc(-c2cnc(C)c3c2ccn3CC2CC2)ccn1 [Compound I-36, N-{4-[1-(cyclopropylmethyl)-7-methyl-1H-pyrrolo[2,3-c]pyridin-4-yl]pyridin-2-yl}acetamide] | 79 | > 100
CC(=O)Nc1cc(-c2cnc(C)c3c2ccn3S(C)(=O)=O)ccn1 [Compound I-45, N-{4-[7-methyl-1-(methylsulfonyl)-1H-pyrrolo[2,3-c]pyridin-4-yl]pyridin-2-yl}acetamide] | > 99 | 10 to 50
CCOC(=O)Nc1cc(-c2cncc3c2ccn3S(C)(=O)=O)ccn1 [Compound I-25, ethyl {4-[1-(methylsulfonyl)-1H-pyrrolo[2,3-c]pyridin-4-yl]pyridin-2-yl}carbamate] | > 99 | < 10
